# Experimental data as given in patent US10597388B2, “Pyridazinone herbicides” (FMC CORPORATION, priority 2014, dated 2020).
# Columns and labels:
# Assay in all cases: Test D controlled growth environment herbicide test, pre- and postemergence
# Assay type in all cases: in vivo
# [1] = tested on: bromegrass, downy (downy bromegrass, Bromus tectorum)
# How it was run: (§1)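 Rating is visual, 0–100 scale (100 = complete control), made against untreated plants 14–21 d after treatment in controlled growth conditions. Postemergence sprays went onto 1- to 4-leaf plants in peat medium; preemergence sprays onto silt loam after sowing; formulation included a surfactant.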
# [2] = tested on: field violet (Viola arvensis)
# How it was run: as §1
# [3] = tested on: blackgrass (Alopecurus myosuroides)
# How it was run: as §1
# [4] = tested on: kochia (Kochia scoparia)
# How it was run: as §1
# [5] = tested on: ryegrass, Italian (Italian ryegrass, Lolium multiflorum)
# How it was run: as §1
# [6] = tested on: chickweed (common chickweed, Stellaria media)
# How it was run: as §1
# [7] = tested on: lambsquarters (Chenopodium album)
# How it was run: as §1
# [8] = tested on: speedwell (bird's-eye speedwell, Veronica persica)
# How it was run: as §1
# [9] = tested on: deadnettle (henbit deadnettle, Lamium amplexicaule)
# How it was run: as §1
# [10] = tested on: chamomile (scentless chamomile, Matricaria inodora)
# How it was run: as §1
# [11] = tested on: windgrass (Apera spica-venti)
# How it was run: as §1
# [12] = tested on: wheat, winter (winter wheat, Triticum aestivum)
# How it was run: as §1
# [13] = tested on: radish, wild (wild radish, Raphanus raphanistrum)
# How it was run: as §1
# [14] = Postemergence, 31 g ai/ha, scale 0 to 100 (0 no effect, 100 complete control)
# [15] = Postemergence, 125 g ai/ha, visual rating on scale 0 (no effect) to 100 (complete control), 14 to 21 d
# [16] = Postemergence, 250 g ai/ha, scale 0 to 100 (0 no effect, 100 complete control)
# [17] = Preemergence, 62 g ai/ha, scale 0 to 100 (0 no effect, 100 complete control)
# [18] = Preemergence, 125 g ai/ha, scale 0 to 100 (0 no effect, 100 complete control)
# [19] = Preemergence, 250 g ai/ha, scale 0 to 100, 0 no effect, 100 complete control
# [20] = postemergence, 62 g ai/ha, scale 0 to 100, 0 no effect, 100 complete control
compound,measurement,setting,value
"Cc1cc(C)c2sc(C)c(-c3c(O)c(C)nn(C)c3=O)c2c1 [Compound 2, 5-hydroxy-2,6-dimethyl-4-(2,5,7-trimethylbenzo[b]thien-3-yl)-3(2H)-pyridazinone]","Bromegrass, Downy plant response rating",[1]; [14],10
same,"Plant response rating, Bromegrass, Downy",[1]; [15],10
same,"Plant response rating, Bromegrass, Downy",[1]; [16],20
same,"Plant response rating (scale of 0 to 100), Bromegrass, Downy","[1]; Preemergence, 31 g ai/ha",10
same,"Plant response rating, Bromegrass, Downy",[1]; [17],50
same,"Plant response rating, Bromegrass, Downy",[1]; [18],65
same,"Plant response rating, Bromegrass, Downy",[1]; [19],70
same,"Plant response rating, Bromegrass, Downy",[1]; [20],10
same,Field Violet plant response rating,[2]; [14],60
same,"Plant response rating, Field Violet",[2]; [15],75
same,"Plant response rating, Field Violet",[2]; [16],80
same,"Plant response rating (scale of 0 to 100), Field Violet","[2]; Preemergence, 31 g ai/ha",95
same,"Plant response rating, Field Violet",[2]; [17],100
same,"Plant response rating, Field Violet",[2]; [18],100
same,"Plant response rating, Field Violet",[2]; [19],100
same,"Plant response rating, Field Violet",[2]; [20],85
same,Blackgrass plant response rating,[3]; [14],65
same,"Plant response rating, Blackgrass",[3]; [15],80
same,"Plant response rating, Blackgrass",[3]; [16],90
same,"Plant response rating (scale of 0 to 100), Blackgrass","[3]; Preemergence, 31 g ai/ha",65
same,"Plant response rating, Blackgrass",[3]; [17],75
same,"Plant response rating, Blackgrass",[3]; [18],85
same,Blackgrass plant response rating,[3]; [19],90
same,"Plant response rating, Blackgrass",[3]; [20],70
same,Kochia plant response rating,[4]; [14],50
same,"Plant response rating, Kochia",[4]; [15],65
same,"Plant response rating, Kochia",[4]; [16],70
same,"Plant response rating (scale of 0 to 100), Kochia","[4]; Preemergence, 31 g ai/ha",0
same,"Plant response rating, Kochia",[4]; [17],0
same,"Plant response rating, Kochia",[4]; [18],0
same,"Plant response rating, Kochia",[4]; [19],20
same,"Plant response rating, Kochia",[4]; [20],60
same,"Ryegrass, Italian plant response rating",[5]; [14],70
same,"Plant response rating, Ryegrass, Italian",[5]; [15],85
same,"Plant response rating, Ryegrass, Italian",[5]; [16],90
same,"Plant response rating (scale of 0 to 100), Ryegrass, Italian","[5]; Preemergence, 31 g ai/ha",85
same,"Plant response rating, Ryegrass, Italian",[5]; [17],95
same,"Plant response rating, Ryegrass, Italian",[5]; [18],100
same,"Plant response rating, Ryegrass, Italian",[5]; [19],100
same,"Plant response rating, Ryegrass, Italian",[5]; [20],80
same,Chickweed plant response rating,[6]; [14],85
same,"Plant response rating, Chickweed",[6]; [15],100
same,"Plant response rating, Chickweed",[6]; [16],100
same,"Plant response rating (scale of 0 to 100), Chickweed","[6]; Preemergence, 31 g ai/ha",90
same,"Plant response rating, Chickweed",[6]; [17],100
same,"Plant response rating, Chickweed",[6]; [18],100
same,"Plant response rating, Chickweed",[6]; [19],100
same,"Plant response rating, Chickweed",[6]; [20],95
same,Lambsquarters plant response rating,[7]; [14],90
same,"Plant response rating, Lambsquarters",[7]; [15],95
same,"Plant response rating, Lambsquarters",[7]; [16],100
same,"Plant response rating (scale of 0 to 100), Lambsquarters","[7]; Preemergence, 31 g ai/ha",15
same,"Plant response rating, Lambsquarters",[7]; [17],60
same,"Plant response rating, Lambsquarters",[7]; [18],100
same,"Plant response rating, Lambsquarters",[7]; [19],100
same,"Plant response rating, Lambsquarters",[7]; [20],90
same,Speedwell plant response rating,[8]; [14],50
same,"Plant response rating, Speedwell",[8]; [15],80
same,"Plant response rating, Speedwell",[8]; [16],90
same,"Plant response rating (scale of 0 to 100), Speedwell","[8]; Preemergence, 31 g ai/ha",55
same,"Plant response rating, Speedwell",[8]; [18],90
same,"Plant response rating, Speedwell",[8]; [19],100
same,"Plant response rating, Speedwell",[8]; [20],65
same,Deadnettle plant response rating,[9]; [14],60
same,"Plant response rating, Deadnettle",[9]; [15],60
same,"Plant response rating, Deadnettle",[9]; [16],60
same,"Plant response rating (scale of 0 to 100), Deadnettle","[9]; Preemergence, 31 g ai/ha",0
same,"Plant response rating, Deadnettle",[9]; [17],0
same,"Plant response rating, Deadnettle",[9]; [18],0
same,"Plant response rating, Deadnettle",[9]; [19],55
same,"Plant response rating, Deadnettle",[9]; [20],60
same,Chamomile plant response rating,[10]; [14],70
same,"Plant response rating, Chamomile",[10]; [15],90
same,"Plant response rating, Chamomile",[10]; [16],100
same,"Plant response rating (scale of 0 to 100), Chamomile","[10]; Preemergence, 31 g ai/ha",80
same,"Plant response rating, Chamomile",[10]; [17],100
same,"Plant response rating, Chamomile",[10]; [18],95
same,"Plant response rating, Chamomile",[10]; [19],100
same,"Plant response rating, Chamomile",[10]; [20],80
same,Windgrass plant response rating,[11]; [14],10
same,"Plant response rating, Windgrass",[11]; [15],55
same,"Plant response rating, Windgrass",[11]; [16],70
same,"Plant response rating (scale of 0 to 100), Windgrass","[11]; Preemergence, 31 g ai/ha",60
same,"Plant response rating, Windgrass",[11]; [17],75
same,"Plant response rating, Windgrass",[11]; [18],95
same,"Plant response rating, Windgrass",[11]; [19],100
same,"Plant response rating, Windgrass",[11]; [20],25
same,"Wheat, Winter plant response rating",[12]; [14],0
same,"Plant response rating, Wheat, Winter",[12]; [15],5
same,"Plant response rating, Wheat, Winter",[12]; [16],10
same,"Plant response rating (scale of 0 to 100), Wheat, Winter","[12]; Preemergence, 31 g ai/ha",0
same,"Plant response rating, Wheat, Winter",[12]; [17],0
same,"Plant response rating, Wheat, Winter",[12]; [18],0
same,"Plant response rating, Wheat, Winter",[12]; [19],5
same,"Plant response rating, Wheat, Winter",[12]; [20],0
same,"Radish, Wild plant response rating",[13]; [14],25
same,"Plant response rating, Radish, Wild",[13]; [15],65
same,"Plant response rating, Radish, Wild",[13]; [16],60
same,"Plant response rating (scale of 0 to 100), Radish, Wild","[13]; Preemergence, 31 g ai/ha",0
same,"Plant response rating, Radish, Wild",[13]; [17],5
same,"Plant response rating, Radish, Wild",[13]; [18],15
same,"Plant response rating, Radish, Wild",[13]; [19],100
same,"Plant response rating, Radish, Wild",[13]; [20],55
